Like-named read-outs stand apart in the source and are kept apart here.
How the values were obtained:
yohimbine toxicity = assay: Potentiation of the yohimbine toxicity in mice (Method 2); type: in vivo, mouse (NMRI); settings: 1 hour before yohimbine hydrochloride 20 mg/kg s.c.; for LD50, potentiation of yohimbine toxicity (Method 2, mouse): oral, deaths after 18 hours
Experimental: The compounds I and their acid addition salts potentiate the toxicity of yohimbine in mice. Antidepressants of type I administered orally in a dose of 0.5 to 100 mg/kg increased the death rate for an otherwise non-fatal dose of yohimbine hydrochloride (20 mg/kg, administered subcutaneously).
2. Potentiation of the yohimbine toxicity in mice
The toxicity of yohimbine, a blocker of presynaptic alpha-receptors, is potentiated by antidepressants (literature: R. M. Quinton, Brit. J. Pharmac. 21, 55-56 (1963). Male mice, NMRI strain, 20-22 g, were arranged in test groups of n=10. The test preparation was suspended in 1% strength aqueous Tylose® slime and administered orally in a volume of 10 ml/kg. Control received only the vehicle.
After a pretreatment time of 1 hour, all animals received a dose of yohimbine hydrochloride, which dose, when administered alone, is non-toxic (20 mg/kg, administered subcutaneously). The dead animals were determined 18 hours after this treatment. (Calculation of the LD50 by probit analysis).

tetrabenazine ptosis [1] = assay: Effect on tetrabenazine ptosis (TBZ), mouse (Method 1); type: in vivo, mouse (NMRI); settings: po, 0.5 h
Experimental: (§1) The appropriate amount of a homogenate of the particular substance in aqueous carboxymethylcellulose is fed to 6 male animals by means of a gavage one hour before treatment with tetrabenazine (40 mg/kg), intraperitoneally).
(§2) 1. Test of the effect on tetrabenazine ptosis (TBZ)
(§3) Test on mice (NMRI), male, weight 19-21 g, or on rats (Wistar), male, about 120 g body weight. Preparation administered orally, homogenized in 1% strength tylose, 1 hour before tetrabenzine, 40 mg/kg, administered subcutaneously (N=6/dose). During the test, 6 animals are present together in one container. To test for upper lid ptosis, the animals are placed individually on the table top. The extent of the ptosis (0-4 points) is assessed and is expressed as a percentage of the maximum score achievable. Evaluation is carried out 30 minutes after administration of tetrabenazine.

stereotypes = assay: Test of the promotion of stereotypes in rats (Method 3); type: in vivo, rat (Wistar); settings: for ED50: read-out: ED50, dose at which half the maximum possible number of points is reached (Method 3, rat)
Experimental: 3. Test of the promotion of stereotypes in rats
The tests were carried out on 130-140 g male Wistar rats. The stereotypes were assessed at 15 minute intervals during the first two hours after administration of the substance, and then at half-hourly intervals up to the 6th hour. The scale below was used. […]
The number of points were calculated as a total number per 6 hours, divided by the number of observations.
The ED50 dose is the dose at which half the maximum possible number of points (5 points multiplied by the number of observations) is reached.

tetrabenazine ptosis [2] = assay: Effect on tetrabenazine ptosis (TBZ), rat (Method 1); type: in vivo, rat (Wistar); settings: po, 0.5 h
Experimental: as §1, §2, §3

[3] = Mus musculus, read-out: ED50, 50% reduction in the degree of ptosis (Method 1, mouse)
[4] = Rattus norvegicus, read-out: ED50, 50% reduction in the degree of ptosis (Method 1, rat)
[5] = read-out: ED50, 50% reduction in the degree of ptosis (Method 1), mouse, p.o., 1 hour before tetrabenazine 40 mg/kg

SMILES	ED50 (tetrabenazine ptosis [1]; [3])	LD50, potentiation of yohimbine toxicity (Method 2, mouse) (yohimbine toxicity)	ED50 (stereotypes; po, rat, p.o., 6 hours)	also measured
COc1ccc(C(n2ccnc2)C2(O)C3CC4CC(C3)CC2C4)cc1OC (centres unmarked) [Example 120]	3 mg/kg			ED50 (Method 2, mouse) (yohimbine toxicity; p.o., given as ED50, 1080 min): 3 mg/kg
OC(C(c1cccc(Cl)c1)n1ccnc1)C12CC3CC(CC(C3)C1)C2 (centres unmarked) [Example 105, 1-(1-Adamantyl)-2-(3-chlorophenyl)-2-(1-imidazolyl)-ethanol]		8.5 mg/kg	> 30 mg/kg	
OC1(C(c2cccc(Cl)c2)n2ccnc2)C2CC3CC(C2)CC1C3 (racemic) [Example 25, (3-chlorophenyl)-(2-hydroxy-2-adamantyl)-(1-imidazolyl)-methane]	0.79 mg/kg	4.4 mg/kg		ED50 (tetrabenazine ptosis [2]; [4]): 10 mg/kg; stereotypes (Method 3, rat), in words (stereotypes; rat, up to 300 mg/kg p.o.): no stereotypes
Cc1cccc(C(n2ccnc2)C2(O)C3CC4CC(C3)CC2C4)c1 (centres unmarked) [Example 106, (2-Hydroxy-2-adamantyl)-1-imidazolyl-(3-tolyl)-methane]		7 mg/kg	> 30 mg/kg	ED50 (tetrabenazine ptosis [1]; [5]): 1.5 mg/kg
CN1Cc2c(N)cccc2C(c2ccccc2)C1 (centres unmarked) [Nomifensin, reference compound]		8.6 mg/kg		ED50 (tetrabenazine ptosis [2]; read-out: ED50, 50% reduction in the degree of ptosis (Method 1), rat, p.o., 1 hour before tetrabenazine 40 mg/kg): 2.7 mg/kg; ED50 (tetrabenazine ptosis [1]; [5]): 0.72 mg/kg; ED50 (stereotypes; Rattus norvegicus, 6 h): 11.9 mg/kg
O=C(O)C(O)C(O)C(=O)O.OC1(C(c2cccc(Cl)c2)n2ccnc2)C2CC3CC(C2)CC1C3 (single isomer, unassigned; (+)) [Example 168a, (+)-(3-chlorophenyl)-(2-hydroxy-2-adamantyl)-(1-imidazolyl)-methane hydrogen tartrate]	2.5 mg/kg	4.6 mg/kg		ED50 (tetrabenazine ptosis [2]; [4]): 5.5 mg/kg; ED50 (stereotypes; Rattus norvegicus, po, 6 h): 30 mg/kg
OC1(C(c2ccc3ccccc3c2)n2ccnc2)C2CC3CC(C2)CC1C3 (centres unmarked) [Example 126]	3 mg/kg	3.2 mg/kg		
CC(C)(C)C(O)C(c1ccc(-c2ccccc2)cc1)n1ccnc1 (centres unmarked) [Example 4, 1-(4-Biphenyl)-3,3-dimethyl-1-(1-imidazolyl)-butan-2-ol]		5.3 mg/kg	> 30 mg/kg	
